# Assay results taken from patent publication EP0305845A1, “Pyridyl ethanol amines, pharmaceutical compositions containing them and processes for their preparation” (Dr. Karl Thomae GmbH, priority 1987, dated 1989).
# Structures can show the parent of a compound that is named as a salt.
# Legend:
# Assay type in all cases: in vivo
# [1] = tested on: weiblichen Mäusen eigener Zucht; experiment: Antiadipose effect a): increase of lipolysis measured as rise of serum glycerol in mice; settings: same procedure as the blood glucose test
# From the text: (§1) Die antidiabetische Wirkung der erfindungsgemäßen Verbindungen läßt sich als eine blutzuckersenkende Wirkung bei Versuchstieren messen. Die zu untersuchenden Substanzen wurden dazu in 1,5%iger Methylzellulose suspendiert und weiblichen Mäusen eigener Zucht mittels Schlundsonde appliziert. 30 Minuten später wurde 1 g Glukose pro kg Körpergewicht in Wasser gelöst und subkutan appliziert. Weitere 30 Minuten später wurde aus dem retroorbitalen Venenplexus Blut entnommen. Aus dem Serum wurde Glukose mit der Hexokinase-Methode mit Hilfe eines Analysenphotometers bestimmt.
# Die antiadipöse Wirkung der erfindungsgemäßen Verbindungen wurde in zwei Versuchsanordnungen nachgewiesen: a) In der ersten Versuchsanordnung wurde die Steigerung der Lipolyse am Anstieg des Glyzerins im Serum gemessen. Der Versuchsablauf ist identisch mit der zur Testung auf blutzuckersenkende Wirkung vorstehend beschriebenen Versuchsanordnung. Glyzerin wurde in einem kombinierten enzymatisch-kolorimetrischen Test mit Hilfe eines Analysenphotometers bestimmt. Die Ergebnisse sind in der nachfolgenden Tabelle in % einer mitgeführten Kontrollgruppe aufgeführt.
# [2] = tested on: weiblichen Mäusen eigener Zucht; experiment: Antidiabetic effect: blood glucose lowering after subcutaneous glucose load in mice; settings: 1 g/kg glucose s.c. 30 min later, serum glucose after a further 30 min
# From the text: as §1
# In der nachstehenden Tabelle sind die bei dieser Versuchsanordnung beobachteten Blutzuckersenkungen in % einer mitgeführten Kontrollgruppe zusammengestellt. Die statistische Auswertung erfolgt nach dem t-Test nach Student mit p=0,05 als Signifikanzgrenze.
# Mäusen [3] = experiment: Antiadipose effect b): decrease of ovarian fat tissue weight in mice; settings: dose 0,3 mg/kg once daily by gavage; fat tissue weighed on day 5
# From the text: b) In der zweiten Versuchsanordnung zur Erfassung antiadipö-ser Wirkung der erfindungsgemäßen Verbindungen wurde die Abnahme des Fettgewebes am Beispiel des Ovarfettgewebes gemessen. Die Verbindungen wurden zu diesem Zwecke Mäusen einmal täglich mittels Schlundsonde in 1,5%iger Methylzellulosesuspension appliziert. Am fünften Tag wurde das Ovarfettgewebe herauspräpariert und gewogen. In der nachfolgenden Tabelle sind die Ergebnisse in % einer mitgeführten Kontrollgruppe wiedergegeben.
# Mäusen [4] = experiment: Cardiac side effects: heart rate in mice by ECG-triggered tachograph; settings: 1 hour after application
# From the text: Das Auftreten von unerwünschten Nebenwirkungen auf das Herz konnte für die erfindungsgemäßen Verbindungen für den therapeutisch angestrebten stoffwechselaktiven Dosisbereich ausgeschlossen werden. Als Nachweis diente die Messung der Herzfrequenz an Mäusen während der Testung auf blutzuckersenkende Wirkung (s.o.). Eine Stunde nach der oralen Applikation der Verbindungen wurde die Herzfrequenz mittels EKG-getriggertem Tachographen bestimmte. Die nachfolgende Tabelle gibt die Änderung der Herzfrequenz in % der Kontrollgruppe wieder.
# [5] = dose 0,3 mg/kg oral, values in ( ) = not significant (p > 0.05)
smiles,measurement,setting,value
"CC(Cc1ccc(OCC(=O)O)cc1)NCC(O)c1cccc(Cl)n1 (single isomer, unassigned) [Beispiel 4, N-[2-(4-Carboxymethoxyphenyl)-1-methylethyl]-2-hydroxy-2-(6-chlor-pyridin-2-yl)ethanamin]","Anstieg des Glyzerins im Serum, % Änderung vom Wert der Kontrollgruppe","[1]; dose 0,3 mg/kg by gavage",+891%
"CC(Cc1ccc(OCCO)cc1)NCC(O)c1cccc(Cl)n1 (single isomer, unassigned) [Beispiel 5]","Blutzuckersenkungen, % Änderung vom Wert der Kontrollgruppe","[2]; dose 0,3 mg/kg by gavage",-66%
same,"Anstieg des Glyzerins im Serum, % Änderung vom Wert der Kontrollgruppe","[1]; dose 0,3 mg/kg by gavage",+878%
same,"Abnahme des Ovarfettgewebes, % Änderung vom Wert der Kontrollgruppe",Mäusen [3],-54%
same,"Änderung der Herzfrequenz, % Änderung vom Wert der Kontrollgruppe",Mäusen [4]; [5],(+27) %
"COC(=O)COc1ccc(CC(C)NCC(O)c2cccc(Cl)n2)cc1 (stereo not drawn) [Beispiel 1, N-[2-(4-Carbomethoxymethoxyphenyl)-1-methylethyl]-2-hydroxy-2-(6-chlor-pyridin-2-yl)ethanamin-hydrochlorid]","Blutzuckersenkungen, % Änderung vom Wert der Kontrollgruppe","[2]; dose 1,0 mg/kg by gavage",-66%
same,"Anstieg des Glyzerins im Serum, % Änderung vom Wert der Kontrollgruppe","[1]; dose 1,0 mg/kg by gavage",+882%
same,"Änderung der Herzfrequenz, % Änderung vom Wert der Kontrollgruppe",Mäusen [4]; dose 10 mg/kg oral,+35%
"CC(Cc1ccc(OCCO)cc1)NCC(O)c1cccc(Cl)n1 (stereo not drawn) [Beispiel 2, N-[2-(4-(2-Hydroxyethoxy)phenyl)-1-methylethyl]-2-hydroxy-2-(6-chlor-pyridin-2-yl)ethanamin-hydrochlorid]","Blutzuckersenkungen, % Änderung vom Wert der Kontrollgruppe","[2]; dose 0,1 mg/kg by gavage",-64%
same,"Anstieg des Glyzerins im Serum, % Änderung vom Wert der Kontrollgruppe","[1]; dose 0,1 mg/kg by gavage",+454%
same,"Änderung der Herzfrequenz, % Änderung vom Wert der Kontrollgruppe",Mäusen [4]; [5],"(+6,9) %"
"CC(Cc1ccc(OCC(=O)O)cc1)NCC(O)c1cccc(Cl)n1 (stereo not drawn) [Beispiel 3, N-[2-(4-Carboxymethoxyphenyl)-1-methylethyl]-2-hydroxy-2-(6-chlor-pyridin-2-yl)ethanamin]","Anstieg des Glyzerins im Serum, % Änderung vom Wert der Kontrollgruppe","[1]; dose 0,3 mg/kg by gavage",+309%
